From the supplement of paper PMC10307832

How the values were obtained:
Assay in all cases: relative viability (nuclei count vs DMSO), 5 days (fraction); higher = more cells survive
[1] = compound: CC1=CC(=CC=C1)NC2=NC(=CS2)C3=CC=NC=C3 + C[C@@H](Oc1cc(-c2cnn(C3CCNCC3)c2)cnc1N)c1c(Cl)ccc(F)c1Cl [Crizotinib] (partner 1 µM)
How it was run: (§1)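 After 5 days of treatment, lung cancer cells in 1536-well plates were fixed and stained in a single step (final 0.05% Triton X-100, 1% formaldehyde, 1 ug/ml Hoechst) and their nuclei counted on 4× images. Treatment had been applied by pin tool the day after seeding as one drug alone or as a fixed anchor-drug dose with five library-drug doses (not always all listed) in √10 steps. Relative viability is the nuclei count of treated wells divided by that of vehicle wells, and values are medians of duplicate plates.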

[2] = compound: CC1=CC(=CC=C1)NC2=NC(=CS2)C3=CC=NC=C3 + C[C@]1(O)C[C@@H](c2nc(-c3ccc4ccc(-c5ccccc5)nc4c3)c3c(N)nccn32)C1 [Linsitinib] (partner 1 µM)
How it was run: as §1

[3] = compound: CC1=CC(=CC=C1)NC2=NC(=CS2)C3=CC=NC=C3 + COc1cc2c(Oc3ccc(NC(=O)C4(C(=O)Nc5ccc(F)cc5)CC4)cc3F)ccnc2cc1OCCCN1CCOCC1 [Foretinib] (partner 0.25 µM)
How it was run: as §1

Masitinib + Pictilisib = compound: Cc1ccc(NC(=O)c2ccc(CN3CCN(C)CC3)cc2)cc1Nc1nc(-c2cccnc2)cs1 [Masitinib] + CS(=O)(=O)N1CCN(Cc2cc3nc(-c4cccc5[nH]ncc45)nc(N4CCOCC4)c3s2)CC1 [Pictilisib] (partner 1 µM)
How it was run: as §1

| Cell Line | relative viability ([1]; first compound 0.08 µM) | relative viability ([1]; first compound 0.253 µM) | relative viability ([1]; first compound 0.8 µM) | relative viability ([1]; first compound 2.53 µM) | relative viability ([1]; first compound 8 µM) | relative viability ([2]; first compound 0.08 µM) | relative viability ([2]; first compound 0.253 µM) | relative viability ([2]; first compound 0.8 µM) | relative viability ([2]; first compound 2.53 µM) | relative viability ([2]; first compound 8 µM) | relative viability ([3]; first compound 0.08 µM) | relative viability ([3]; first compound 0.253 µM) | relative viability ([3]; first compound 0.8 µM) | relative viability ([3]; first compound 2.53 µM) | relative viability ([3]; first compound 8 µM) | relative viability (Masitinib + Pictilisib; first compound 0.01 µM) | relative viability (Masitinib + Pictilisib; first compound 0.03162 µM) | relative viability (Masitinib + Pictilisib; first compound 0.1 µM) | relative viability (Masitinib + Pictilisib; first compound 0.3162 µM) | relative viability (Masitinib + Pictilisib; first compound 1 µM) |
| --- | --- | --- | --- | --- | --- | --- | --- | --- | --- | --- | --- | --- | --- | --- | --- | --- | --- | --- | --- | --- |
| HCC-15 | 0.826 | 0.807 | 0.777 | 0.833 | 0.79 | 0.872 | 0.859 | 0.828 | 0.791 | 0.754 | 0.942 | 1.01 | 0.928 | 1.07 | 0.922 | 0.604 | 0.72 | 0.672 | 0.77 | 0.686 |
| A-427 | 0.851 | 0.944 | 0.751 |  | 0.692 | 1.16 | 1.03 | 1.09 |  | 1.12 | 1.02 | 1.08 | 1.14 | 0.924 | 0.707 |  | 0.55 |  | 0.687 | 0.601 |
| NCI-H23 | 0.417 | 0.469 | 0.474 | 0.531 | 0.526 | 0.491 | 0.607 | 0.639 | 0.584 | 0.583 | 1.03 | 0.963 | 1.03 | 0.873 | 0.895 | 0.434 | 0.493 | 0.525 | 0.495 | 0.457 |
| NCI-H1755 | 0.86 | 0.815 | 0.803 | 0.729 | 0.522 | 0.949 | 0.886 | 0.857 | 0.911 | 0.677 | 0.862 | 0.835 | 0.823 | 0.758 | 0.664 |  | 0.387 | 0.402 | 0.482 | 0.423 |
| LU99A |  | 0.546 | 0.717 | 0.52 | 0.718 |  | 0.669 | 0.532 | 0.554 | 0.538 | 0.807 | 0.805 | 0.803 | 0.915 | 0.941 | 0.324 | 0.332 | 0.346 | 0.349 | 0.279 |
| PC-3 [JPC-3] | 0.875 | 0.913 | 0.852 | 0.904 | 0.799 | 0.888 | 0.878 | 0.772 | 0.903 | 0.91 | 0.975 | 0.928 | 0.911 | 0.918 | 0.824 | 0.71 | 0.761 | 0.761 | 0.459 | 0.656 |
| NCI-H1975 | 0.819 | 0.737 | 0.862 | 0.758 | 0.722 | 0.825 | 0.868 | 0.702 | 0.754 | 0.738 | 0.687 | 0.704 | 0.837 | 0.617 | 0.633 | 0.288 | 0.305 | 0.331 | 0.224 | 0.289 |
| NCI-H1703 | 0.73 | 1.01 | 0.683 | 0.878 | 0.799 | 0.733 | 0.632 | 0.64 | 0.732 | 0.555 | 0.293 | 0.347 | 0.367 | 0.374 | 0.375 | 0.226 | 0.255 | 0.217 | 0.203 | 0.201 |
